Measured values: the Kinase Knowledgebase extract (Sharma et al. 2016)

Target: CDK2 (UniProt P24941)
Assay: Enzyme Assay

Question: With `O=C(Cc1ccc(-c2ccccc2)cc1)Nc1n[nH]c2ccc(N3CCCS3(=O)=O)cc12` as the compound, how does the IC50 read?
Answer: < 50 nM

Question: Which IC50 does the source give for `O=C(Cn1cnc2ccccc21)Nc1n[nH]c2ccc(N3CCCS3(=O)=O)cc12` here?
Answer: < 50 nM

Question: With `Cc1ccc(CC(=O)Nc2n[nH]c3ccc(N4CCCS4(=O)=O)cc23)cc1` as the compound, how does the IC50 read?
Answer: < 50 nM

Question: `O=C(Cn1cnc(-c2ccc3ccccc3c2)c1)Nc1n[nH]c2ccc(N3CCCS3(=O)=O)cc12` was tested. Which IC50 did it give?
Answer: < 50 nM

Question: Which IC50 does the source give for `O=S1(=O)CCCN1c1ccc2[nH]nc(NC(Cc3ccccc3)=NO)c2c1` here?
Answer: < 10000 nM

Question: `CC(=O)Nc1nc(CC(=O)Nc2n[nH]c3ccc(N4CCCS4(=O)=O)cc23)cs1` was tested. Which IC50 did it give?
Answer: < 10000 nM

Question: With `O=S1(=O)CCCN1c1ccc2[nH]nc(NC(=S)Cc3ccccc3)c2c1` as the compound, how does the IC50 read?
Answer: < 10000 nM

Question: `CCOCCOCCOc1ccc(CC(=O)Nc2n[nH]c3ccc(N4CCCS4(=O)=O)cc23)cc1` was tested. Which IC50 did it give?
Answer: < 100 nM

Question: `O=C(CCc1ccccc1)Nc1n[nH]c2ccc(N3CCCS3(=O)=O)cc12` was tested. Which IC50 did it give?
Answer: < 1000 nM

Question: Which IC50 does the source give for `O=C(Cc1ccc(CN2CCOCC2)cc1)Nc1n[nH]c2ccc(N3CCCS3(=O)=O)cc12` here?
Answer: < 100 nM

Question: How did the IC50 turn out when `CC(=NO)Nc1n[nH]c2ccc(N3CCCS3(=O)=O)cc12` was run?
Answer: < 100000 nM

Question: With `O=C(CN1CCOCC1)Nc1n[nH]c2ccc(N3CCCS3(=O)=O)cc12` as the compound, how does the IC50 read?
Answer: < 10000 nM

Question: For `O=C(Cn1cnc(-c2ccccc2)c1)Nc1n[nH]c2ccc(N3CCCS3(=O)=O)cc12`, which IC50 is on record?
Answer: < 50 nM

Question: How did the IC50 turn out when `COc1ccc(N2CCN(CC(=O)Nc3n[nH]c4ccc(N5CCCS5(=O)=O)cc34)CC2)cc1` was run?
Answer: < 10000 nM

Question: For `O=C(Cc1ccc(O)cc1)Nc1n[nH]c2ccc(N3CCCS3(=O)=O)cc12`, which IC50 is on record?
Answer: < 50 nM

Question: How did the IC50 turn out when `CCOc1ccccc1N1CCN(CC(=O)Nc2n[nH]c3ccc(N4CCCS4(=O)=O)cc23)CC1` was run?
Answer: < 10000 nM

Question: `O=C(Cc1ccc2c(c1)OCO2)Nc1n[nH]c2ccc(N3CCCS3(=O)=O)cc12` was tested. Which IC50 did it give?
Answer: < 50 nM

Question: For `O=C(Cc1ccc(-c2ccncc2)cc1)Nc1n[nH]c2ccc(N3CCCS3(=O)=O)cc12`, which IC50 is on record?
Answer: < 50 nM

Question: Which IC50 does the source give for `CC(C)(C)OC(=O)Nc1nc(CC(=O)Nc2n[nH]c3ccc(N4CCCS4(=O)=O)cc23)cs1` here?
Answer: < 100 nM

Question: Which IC50 does the source give for `O=C(Cc1cccc([N+](=O)[O-])c1)Nc1n[nH]c2ccc(N3CCCS3(=O)=O)cc12` here?
Answer: < 50 nM

Question: How did the IC50 turn out when `Nc1nc(CC(=O)Nc2n[nH]c3ccc(N4CCCS4(=O)=O)cc23)cs1` was run?
Answer: < 500 nM

Question: For `O=C(Cc1ccc(-c2ccsc2)cc1)Nc1n[nH]c2ccc(N3CCCS3(=O)=O)cc12`, which IC50 is on record?
Answer: < 50 nM

Question: Which IC50 does the source give for `Nc1cccc(CC(=O)Nc2n[nH]c3ccc(N4CCCS4(=O)=O)cc23)c1` here?
Answer: < 50 nM

Question: Which IC50 does the source give for `CS(=O)(=O)c1ccc(CC(=O)Nc2n[nH]c3ccc(N4CCCS4(=O)=O)cc23)cc1` here?
Answer: < 50 nM

Question: Which IC50 does the source give for `NCCOc1ccc(CC(=O)Nc2n[nH]c3ccc(N4CCCS4(=O)=O)cc23)cc1` here?
Answer: < 100 nM

Question: For `O=C(Cc1ccc(OCc2ccccc2)cc1)Nc1n[nH]c2ccc(N3CCCS3(=O)=O)cc12`, which IC50 is on record?
Answer: < 100 nM

Question: `CC(=O)Nc1n[nH]c2ccc(N3CCCS3(=O)=O)cc12` was tested. Which IC50 did it give?
Answer: > 100000 nM

Question: For `O=C(Cc1ccc(Oc2ccccc2)cc1)Nc1n[nH]c2ccc(N3CCCS3(=O)=O)cc12`, which IC50 is on record?
Answer: < 100 nM

Question: With `O=C(CN1CCN(c2ccccc2)CC1)Nc1n[nH]c2ccc(N3CCCS3(=O)=O)cc12` as the compound, how does the IC50 read?
Answer: < 500 nM

Question: With `O=C(Cc1ccc(-c2ccco2)cc1)Nc1n[nH]c2ccc(N3CCCS3(=O)=O)cc12` as the compound, how does the IC50 read?
Answer: < 50 nM

Question: For `CCOc1ccc(CC(=O)Nc2n[nH]c3ccc(N4CCCS4(=O)=O)cc23)cc1`, which IC50 is on record?
Answer: < 50 nM

Question: How did the IC50 turn out when `CN1CCN(S(=O)(=O)c2ccc(CC(=O)Nc3n[nH]c4ccc(N5CCCS5(=O)=O)cc34)cc2)CC1` was run?
Answer: < 1000 nM

Question: `CC(=O)c1ccc(N2CCN(CC(=O)Nc3n[nH]c4ccc(N5CCCS5(=O)=O)cc34)CC2)cc1` was tested. Which IC50 did it give?
Answer: < 10000 nM

Question: With `O=C(Nc1n[nH]c2ccc(N3CCCS3(=O)=O)cc12)C1(c2ccccc2)CCCC1` as the compound, how does the IC50 read?
Answer: < 100000 nM

Question: Which IC50 does the source give for `O=C(Cc1cccc2ccccc12)Nc1n[nH]c2ccc(N3CCCS3(=O)=O)cc12` here?
Answer: < 50 nM

Question: With `CNc1ccc(CC(=O)Nc2n[nH]c3ccc(N4CCCS4(=O)=O)cc23)cc1` as the compound, how does the IC50 read?
Answer: < 50 nM

Question: Which IC50 does the source give for `CCNc1nc(CC(=O)Nc2n[nH]c3ccc(N4CCCS4(=O)=O)cc23)cs1` here?
Answer: < 500 nM

Question: Which IC50 does the source give for `O=C(Cc1csc(NCc2ccc(OCc3ccccc3)cc2)n1)Nc1n[nH]c2ccc(N3CCCS3(=O)=O)cc12` here?
Answer: < 10000 nM

Question: Which IC50 does the source give for `COc1cc(CC(=O)Nc2n[nH]c3ccc(N4CCCS4(=O)=O)cc23)cc(OC)c1` here?
Answer: < 50 nM

Question: How did the IC50 turn out when `COc1ccc(CC(=O)Nc2n[nH]c3ccc(N4CCCS4(=O)=O)cc23)cc1` was run?
Answer: < 100 nM

Question: For `O=C(Cc1ccc(S(=O)(=O)N2CCOCC2)cc1)Nc1n[nH]c2ccc(N3CCCS3(=O)=O)cc12`, which IC50 is on record?
Answer: < 100 nM

Question: `O=C(Cn1cnc(-c2ccc(-c3ccccc3)cc2)c1)Nc1n[nH]c2ccc(N3CCCS3(=O)=O)cc12` was tested. Which IC50 did it give?
Answer: < 500 nM

Question: With `O=C(Cc1ccccc1)Nc1n[nH]c2ccc(N3CCCS3(=O)=O)cc12` as the compound, how does the IC50 read?
Answer: < 50 nM

Question: `O=C(CN1CCN(c2ccc(Cl)cc2)CC1)Nc1n[nH]c2ccc(N3CCCS3(=O)=O)cc12` was tested. Which IC50 did it give?
Answer: < 10000 nM

Question: Which IC50 does the source give for `O=C(Cc1ccc(N2CCOCC2)cc1)Nc1n[nH]c2ccc(N3CCCS3(=O)=O)cc12` here?
Answer: < 100 nM

Question: With `CN1CCN(CC(=O)Nc2n[nH]c3ccc(N4CCCS4(=O)=O)cc23)CC1` as the compound, how does the IC50 read?
Answer: < 10000 nM

Question: `CSc1ccc(CC(=O)Nc2n[nH]c3ccc(N4CCCS4(=O)=O)cc23)cc1` was tested. Which IC50 did it give?
Answer: < 50 nM

Question: Which IC50 does the source give for `O=C(Nc1n[nH]c2ccc(N3CCCS3(=O)=O)cc12)C(c1ccccc1)C1CCCC1` (stereo not given) here?
Answer: < 100000 nM

Question: Which IC50 does the source give for `O=C(Cc1ccc([N+](=O)[O-])cc1)Nc1n[nH]c2ccc(N3CCCS3(=O)=O)cc12` here?
Answer: < 50 nM

Question: For `CCOc1cccc(CC(=O)Nc2n[nH]c3ccc(N4CCCS4(=O)=O)cc23)c1`, which IC50 is on record?
Answer: < 50 nM

Question: For `Nc1ccc(CC(=O)Nc2n[nH]c3ccc(N4CCCS4(=O)=O)cc23)cc1`, which IC50 is on record?
Answer: < 50 nM

Question: Which IC50 does the source give for `CCN(CC)c1cccc(CC(=O)Nc2n[nH]c3ccc(N4CCCS4(=O)=O)cc23)c1` here?
Answer: < 500 nM

Question: For `CCOc1ccc(CC(=O)Nc2n[nH]c3ccc(N4CCCS4(=O)=O)cc23)cc1S(=O)(=O)N1CCN(C)CC1`, which IC50 is on record?
Answer: < 1000 nM

Question: With `CCNc1cccc(CC(=O)Nc2n[nH]c3ccc(N4CCCS4(=O)=O)cc23)c1` as the compound, how does the IC50 read?
Answer: < 500 nM

Question: For `CCN(CC)c1nc(CC(=O)Nc2n[nH]c3ccc(N4CCCS4(=O)=O)cc23)cs1`, which IC50 is on record?
Answer: < 500 nM

Question: For `Cc1cccc(CC(=O)Nc2n[nH]c3ccc(N4CCCS4(=O)=O)cc23)c1`, which IC50 is on record?
Answer: < 50 nM

Question: With `CC(=S)Nc1n[nH]c2ccc(N3CCCS3(=O)=O)cc12` as the compound, how does the IC50 read?
Answer: < 50000 nM

Question: With `O=C(Cc1ccc(F)cc1)Nc1n[nH]c2ccc(N3CCCS3(=O)=O)cc12` as the compound, how does the IC50 read?
Answer: < 50 nM

Question: Which IC50 does the source give for `O=C(Cc1ccc(Cl)c(Cl)c1)Nc1n[nH]c2ccc(N3CCCS3(=O)=O)cc12` here?
Answer: < 50 nM

Question: `CC(C)c1ccc(CC(=O)Nc2n[nH]c3ccc(N4CCCS4(=O)=O)cc23)cc1` was tested. Which IC50 did it give?
Answer: < 50 nM

Question: With `CCOc1ccc(CC(=O)Nc2n[nH]c3ccc(N4CCCS4(=O)=O)cc23)cc1S(=O)(=O)N1CCOCC1` as the compound, how does the IC50 read?
Answer: < 1000 nM

Question: `O=C(Cn1cnc(-c2ccc(Br)cc2)c1)Nc1n[nH]c2ccc(N3CCCS3(=O)=O)cc12` was tested. Which IC50 did it give?
Answer: < 100 nM

Question: How did the IC50 turn out when `O=C(Cc1ccc(N(Cc2ccccc2)Cc2ccccc2)cc1)Nc1n[nH]c2ccc(N3CCCS3(=O)=O)cc12` was run?
Answer: < 500 nM

Question: `Cc1ccccc1CC(=O)Nc1n[nH]c2ccc(N3CCCS3(=O)=O)cc12` was tested. Which IC50 did it give?
Answer: < 100 nM

Question: Which IC50 does the source give for `O=C(Cc1ccc(Cl)cc1)Nc1n[nH]c2ccc(N3CCCS3(=O)=O)cc12` here?
Answer: < 50 nM

Question: With `O=C(CN1CCCCC1)Nc1n[nH]c2ccc(N3CCCS3(=O)=O)cc12` as the compound, how does the IC50 read?
Answer: < 10000 nM

Question: For `O=C(Cc1cccc(Cl)c1)Nc1n[nH]c2ccc(N3CCCS3(=O)=O)cc12`, which IC50 is on record?
Answer: < 50 nM

Question: With `O=C(CN1CCc2ccccc2C1)Nc1n[nH]c2ccc(N3CCCS3(=O)=O)cc12` as the compound, how does the IC50 read?
Answer: < 1000 nM

Question: Which IC50 does the source give for `O=C(Cc1ccc(Cn2ccnc2)cc1)Nc1n[nH]c2ccc(N3CCCS3(=O)=O)cc12` here?
Answer: < 1000 nM

Question: Which IC50 does the source give for `CCNc1ccc(CC(=O)Nc2n[nH]c3ccc(N4CCCS4(=O)=O)cc23)cc1` here?
Answer: < 50 nM

Question: For `O=C(Cc1ccc(Br)cc1)Nc1n[nH]c2ccc(N3CCCS3(=O)=O)cc12`, which IC50 is on record?
Answer: < 50 nM

Question: Which IC50 does the source give for `CCOc1ccc(CC(=O)Nc2n[nH]c3ccc(N4CCCS4(=O)=O)cc23)cc1[N+](=O)[O-]` here?
Answer: < 50 nM

Question: With `O=C(Cc1cccc(Br)c1)Nc1n[nH]c2ccc(N3CCCS3(=O)=O)cc12` as the compound, how does the IC50 read?
Answer: < 50 nM

Question: For `COCCOCCOCCOc1ccc(CC(=O)Nc2n[nH]c3ccc(N4CCCS4(=O)=O)cc23)cc1`, which IC50 is on record?
Answer: < 100 nM

Question: How did the IC50 turn out when `CCOc1ccc(CC(=O)Nc2n[nH]c3ccc(N4CCCS4(=O)=O)cc23)cc1Cl` was run?
Answer: < 100 nM

Question: With `CCC(C(=O)Nc1n[nH]c2ccc(N3CCCS3(=O)=O)cc12)c1ccccc1` (stereo not given) as the compound, how does the IC50 read?
Answer: < 100000 nM

Question: `CCN(CC)c1ccc(CC(=O)Nc2n[nH]c3ccc(N4CCCS4(=O)=O)cc23)cc1` was tested. Which IC50 did it give?
Answer: < 50 nM

Question: With `CCOc1ccc(CC(=O)Nc2n[nH]c3ccc(N4CCCS4(=O)=O)cc23)cc1S(N)(=O)=O` as the compound, how does the IC50 read?
Answer: < 1000 nM

Question: Which IC50 does the source give for `O=C(Cc1ccc2ccccc2c1)Nc1n[nH]c2ccc(N3CCCS3(=O)=O)cc12` here?
Answer: < 50 nM

Question: With `CN1CCN(Cc2ccc(CC(=O)Nc3n[nH]c4ccc(N5CCCS5(=O)=O)cc34)cc2)CC1` as the compound, how does the IC50 read?
Answer: < 100 nM
